This note sets out measurements from PubChem BioAssay AID256 (DTP/NCI, 2004).

“And” between values parts separate entries of the source, which are not always exact repeats. Equal entries are not always repeated. Inconclusive results and toxic doses are left out.

For the test, the system named is CD2F1 mice, L1210 leukemia ip, survival T/C. The test is described as follows: NCI In Vivo Anticancer Drug Screen. Data for tumor model L1210 Leukemia (intraperitoneal) in CD2F1 (CDF1) mice. As to conditions: higher = longer survival. Summed up: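 In this screen, transplantable tumors were grown in mice given either the compound or its vehicle. Results were expressed as the treated measurement relative to the control measurement.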

Setting [1] is: endpoint: mean survival time, dose: 50.0 mg/kg/injection, schedule: Q01DX009 (ip), vehicle: Klucel (hydroxypropylcellulose) (HPC).
Where [2] appears, read: endpoint: mean survival time, dose: 100.0 mg/kg/injection, schedule: Q01DX009 (ip), vehicle: Klucel (hydroxypropylcellulose) (HPC).
The mark [3] stands for this setting: endpoint: mean survival time, dose: 200.0 mg/kg/injection, schedule: Q01DX009 (ip), vehicle: Klucel (hydroxypropylcellulose) (HPC).
The mark [4] stands for this setting: endpoint: mean survival time, dose: 50.0 mg/kg/injection, schedule: Q04DX003 (ip), vehicle: saline.
Where [5] appears, read: endpoint: mean survival time, dose: 100.0 mg/kg/injection, schedule: Q01DX001 (ip), vehicle: saline.
[6] abbreviates: endpoint: mean survival time, dose: 100.0 mg/kg/injection, schedule: Q04DX003 (ip), vehicle: saline.
Setting [7] is: endpoint: mean survival time, dose: 200.0 mg/kg/injection, schedule: Q01DX001 (ip), vehicle: saline.
Setting [8] is: endpoint: mean survival time, dose: 200.0 mg/kg/injection, schedule: Q04DX003 (ip), vehicle: saline with Tween-80.
Setting [9] is: endpoint: mean survival time, dose: 400.0 mg/kg/injection, schedule: Q04DX003 (ip), vehicle: saline with Tween-80.
Where [10] appears, read: endpoint: mean survival time, dose: 100.0 mg/kg/injection, schedule: Q04DX003 (ip), vehicle: saline with Tween-80.
[11] abbreviates: endpoint: mean survival time, dose: 12.5 mg/kg/injection, schedule: Q01DX001 (ip), vehicle: saline with Tween-80.
The mark [12] stands for this setting: endpoint: mean survival time, dose: 25.0 mg/kg/injection, schedule: Q01DX001 (ip), vehicle: saline with Tween-80.
Where [13] appears, read: endpoint: mean survival time, dose: 100.0 mg/kg/injection, schedule: Q01DX001 (ip), vehicle: saline with Tween-80.
Where [14] appears, read: endpoint: mean survival time, dose: 200.0 mg/kg/injection, schedule: Q01DX001 (ip), vehicle: saline with Tween-80.
Where [15] appears, read: endpoint: mean survival time, dose: 400.0 mg/kg/injection, schedule: Q01DX001 (ip), vehicle: saline with Tween-80.

Consider `O=C(O)/C=C/C(=O)Nc1ccc(Cl)c(Cl)c1`, for which the T/C is 93 % of control (endpoint: mean survival time, dose: 6.25 mg/kg/injection, schedule: Q01DX009 (ip), vehicle: Klucel (hydroxypropylcellulose) (HPC)); 96 % of control and 98 % of control (endpoint: mean survival time, dose: 12.5 mg/kg/injection, schedule: Q01DX009 (ip), vehicle: Klucel (hydroxypropylcellulose) (HPC)); 113 % of control and 104 % of control (endpoint: mean survival time, dose: 25.0 mg/kg/injection, schedule: Q01DX009 (ip), vehicle: Klucel (hydroxypropylcellulose) (HPC)); 114 % of control and 104 % of control and 110 % of control under setting [1]; 104 % of control and 107 % of control and 109 % of control under setting [2]; 98 % of control under setting [3].

In the case of `NC(=O)CCC(=O)NCCN1CC1`, the T/C is, setting by setting: (endpoint: mean survival time, dose: 25.0 mg/kg/injection, schedule: Q04DX003 (ip), vehicle: saline) 97 % of control; under setting [4], 97 % of control; under setting [5], 104 % of control; under setting [6], 96 % of control; under setting [7], 98 % of control; (endpoint: mean survival time, dose: 400.0 mg/kg/injection, schedule: Q01DX001 (ip), vehicle: saline) 115 % of control.

As to `CCN(CC)C(=O)N1CC2CCC(C1)N2C`, under setting [6], the T/C was 100 % of control.

Regarding `O/N=C(/CC(O)(c1ccccc1)c1ccccc1)c1ccccc1`, the T/C is 98 % of control (endpoint: mean survival time, dose: 75.0 mg/kg/injection, schedule: Q01DX001 (ip), vehicle: saline); 103 % of control (endpoint: mean survival time, dose: 150.0 mg/kg/injection, schedule: Q01DX001 (ip), vehicle: saline); 95 % of control (endpoint: mean survival time, dose: 300.0 mg/kg/injection, schedule: Q01DX001 (ip), vehicle: saline).

Turning to `O=C(CNC(=O)Nc1ccc(F)cc1)N/N=C/c1ccc(Cl)c(Cl)c1`, the T/C (endpoint: mean survival time, dose: 50.0 mg/kg/injection, schedule: Q01DX009 (ip), vehicle: saline with Tween-80) was 96 % of control; the T/C (endpoint: mean survival time, dose: 100.0 mg/kg/injection, schedule: Q01DX009 (ip), vehicle: saline with Tween-80) was 96 % of control; the T/C (endpoint: mean survival time, dose: 200.0 mg/kg/injection, schedule: Q01DX009 (ip), vehicle: saline with Tween-80) was 100 % of control.

On to `COc1ccc(C(C)N=CC(C)(C)C)cc1` (configuration not stated), for which the T/C runs as follows: under setting [8], 100 % of control; under setting [9], 88 % of control.

Consider `C=CCOc1c(C)cc(C)cc1C`, for which the T/C reads like this: under setting [1], 113 % of control; under setting [2], 94 % of control; under setting [3], 102 % of control.

Regarding `CC(=O)OCC1OC(n2ccc3c(N)ncnc32)C(O)C1OC(C)=O` (configuration not stated), the T/C is, setting by setting: (endpoint: mean survival time, dose: 5.0 mg/kg/injection, schedule: Q01DX001 (ip), vehicle: saline) 112 % of control; (endpoint: mean survival time, dose: 10.0 mg/kg/injection, schedule: Q01DX001 (ip), vehicle: saline) 110 % of control; (endpoint: mean survival time, dose: 20.0 mg/kg/injection, schedule: Q01DX001 (ip), vehicle: saline) 108 % of control.

For the compound `CNC(=O)Nc1ccc(OS(=O)(=O)N(C)C)cc1`, the T/C is 101 % of control under setting [10], 101 % of control under setting [8] and 101 % of control under setting [9].

On to `[Cl][Ga]([Cl])[Cl]`, for which the T/C runs as follows: under setting [4], 96 % of control; under setting [5], 92 % of control; under setting [6], 108 % of control; under setting [7], 95 % of control.

`CN1N(C(O)C(Cl)(Cl)Cl)C12CCCCC2` (configuration not stated): the T/C (endpoint: mean survival time, dose: 12.0 mg/kg/injection, schedule: Q01DX001 (ip), vehicle: carboxymethylcellulose (CMC)) is 94 % of control; the T/C (endpoint: mean survival time, dose: 25.0 mg/kg/injection, schedule: Q01DX001 (ip), vehicle: carboxymethylcellulose (CMC)) is 97 % of control; the T/C (endpoint: mean survival time, dose: 50.0 mg/kg/injection, schedule: Q01DX001 (ip), vehicle: carboxymethylcellulose (CMC)) is 95 % of control; the T/C (endpoint: mean survival time, dose: 100.0 mg/kg/injection, schedule: Q01DX001 (ip), vehicle: carboxymethylcellulose (CMC)) is 95 % of control.

For `CC(=O)OCC1OC(n2ncc3c(NCc4ccco4)ncnc32)C(O)C1O` (configuration not stated), the T/C reads like this: (endpoint: mean survival time, dose: 25.0 mg/kg/injection, schedule: Q01DX009 (ip), vehicle: water) 109 % of control; (endpoint: mean survival time, dose: 50.0 mg/kg/injection, schedule: Q01DX009 (ip), vehicle: water) 97 % of control; (endpoint: mean survival time, dose: 100.0 mg/kg/injection, schedule: Q01DX009 (ip), vehicle: water) 111 % of control; (endpoint: mean survival time, dose: 200.0 mg/kg/injection, schedule: Q01DX009 (ip), vehicle: water) 102 % of control; (endpoint: mean survival time, dose: 400.0 mg/kg/injection, schedule: Q01DX009 (ip), vehicle: water) 86 % of control.

In the case of `Nc1c(Cl)cc2c(c1Cl)Cc1c-2cc(Br)c(N)c1Br`, the T/C under setting [11] was 100 % of control; the T/C under setting [12] is 97 % of control; the T/C (endpoint: mean survival time, dose: 50.0 mg/kg/injection, schedule: Q01DX001 (ip), vehicle: saline with Tween-80) is 97 % of control; the T/C under setting [13] is 101 % of control.

For `Cc1ncoc1C(=O)O`, the T/C by setting is: under setting [10], 109 % of control; under setting [8], 104 % of control.

Turning to `CC(=O)OC(c1ccccc1)C(C)C(O)(C(F)(F)F)C(F)(F)F` (configuration not stated), the T/C by setting is: under setting [13], 98 % of control; under setting [14], 87 % of control; under setting [15], 95 % of control.

Regarding `C/C=C1/CC2C=Nc3cc(O)c(OC)cc3C(=O)N2C1` (configuration not stated), the T/C (endpoint: median survival time, dose: 0.02 mg/kg/injection, schedule: Q01DX005 (ip), vehicle: DMSO) was 100 % of control; the T/C (endpoint: median survival time, dose: 0.04 mg/kg/injection, schedule: Q01DX005 (ip), vehicle: DMSO) was 101 % of control; the T/C (endpoint: median survival time, dose: 0.08 mg/kg/injection, schedule: Q01DX005 (ip), vehicle: DMSO) was 104 % of control; the T/C (endpoint: median survival time, dose: 0.16 mg/kg/injection, schedule: Q01DX005 (ip), vehicle: DMSO) was 113 % of control; the T/C (endpoint: median survival time, dose: 0.32 mg/kg/injection, schedule: Q01DX005 (ip), vehicle: DMSO) is 121 % of control.

For the compound `c1ccc2c3c([nH]c2c1)CCCCC3`, the T/C runs as follows: under setting [10], 92 % of control; under setting [8], 95 % of control; under setting [9], 94 % of control.

Consider `CC(C[P+](c1ccccc1)(c1ccccc1)c1ccccc1)C(O)(C(=O)c1ccccc1)c1ccccc1` (configuration not stated), for which the T/C by setting is: (endpoint: mean survival time, dose: 6.25 mg/kg/injection, schedule: Q01DX001 (ip), vehicle: saline with Tween-80) 108 % of control; (endpoint: mean survival time, dose: 6.25 mg/kg/injection, schedule: Q01DX009 (ip), vehicle: saline with Tween-80) 95 % of control; under setting [11], 103 % of control; (endpoint: mean survival time, dose: 12.5 mg/kg/injection, schedule: Q01DX009 (ip), vehicle: saline with Tween-80) 110 % of control; under setting [12], 108 % of control.

Turning to `CCOCc1cc(C)[nH]c(=O)c1C#N`, the T/C under setting [10] was 96 % of control and the T/C under setting [8] is 98 % of control.

As for `Cc1ccc(S(=O)(=O)OC(c2ccccc2)C(F)(F)F)cc1` (configuration not stated), the T/C by setting is: under setting [13], 100 % of control; under setting [14], 103 % of control; under setting [15], 94 % of control.

Regarding `CN(CCCCN(C)CCOS(C)(=O)=O)CCOS(C)(=O)=O`, the T/C (endpoint: mean survival time, dose: 0.4 mg/kg/injection, schedule: Q01DX009 (ip), vehicle: saline) is 112 % of control; the T/C (endpoint: mean survival time, dose: 0.8 mg/kg/injection, schedule: Q01DX009 (ip), vehicle: saline) is 115 % of control; the T/C (endpoint: mean survival time, dose: 3.6 mg/kg/injection, schedule: Q01DX001 (ip), vehicle: saline) is 110 % of control; the T/C (endpoint: mean survival time, dose: 4.0 mg/kg/injection, schedule: Q01DX009 (ip), vehicle: saline) is 103 % of control; the T/C (endpoint: mean survival time, dose: 8.3 mg/kg/injection, schedule: Q01DX001 (ip), vehicle: saline) is 118 % of control; the T/C (endpoint: mean survival time, dose: 12.5 mg/kg/injection, schedule: Q01DX001 (ip), vehicle: saline) is 150 % of control. For the same compound, the T/C (endpoint: mean survival time, dose: 25.0 mg/kg/injection, schedule: Q01DX001 (ip), vehicle: saline) is 156 % of control.

On to `COc1cc(N=CNc2cc(OC)n[n+]([O-])c2)c[n+]([O-])n1`, for which the T/C reads like this: (endpoint: mean survival time, dose: 12.5 mg/kg/injection, schedule: Q04DX002 (ip), vehicle: saline with Tween-80) 111 % of control; (endpoint: mean survival time, dose: 25.0 mg/kg/injection, schedule: Q04DX002 (ip), vehicle: saline with Tween-80) 86 % of control; (endpoint: mean survival time, dose: 50.0 mg/kg/injection, schedule: Q04DX002 (ip), vehicle: saline with Tween-80) 101 % of control.

Consider `CC(=O)Nc1ccc2ccccc2c1-c1c(NC(C)=O)ccc2ccccc12`, for which the T/C under setting [10] was 87 % of control and the T/C under setting [9] was 95 % of control.
